Results on 1 molecule are retold here after US20070066686A1, “Infusion preparation containing (2r)-2-propyloctanoic acid as at the active ingredient” (ONO PHARMACEUTICAL CO., LTD., priority 2003, published 2007).

For the series, the system named is dog. As to the kind of experiment: single intravenous administration toxicity using a dog. Type of series: in vivo. Particulars: dose of 100 mg/kg. The text has this: Toxicity of (2R)-2-propyloctanoic acid or a salt thereof is very low, and it is considered to be sufficiently safe for the use as a pharmaceutical drug.

Turning to `CCCCCC[C@@H](CCC)C(=O)O` [(2R)-2-propyloctanoic acid], the “death after single intravenous administration” value is “did not result in death”.
